Results reported in paper PMC6150172, “Synthesis of Oxadiazole-Thiadiazole Hybrids and Their Anticandidal Activity” (Molecules : A Journal of Synthetic Chemistry and Natural …, 2017).
Converted amounts (≈) assume the structure as drawn.

Assays:
[1] = system: C. parapsilosis (ATCC 22019); experiment: Antifungal broth microdilution assay (EUCAST EDef 7.1), C. parapsilosis; type: cell-based; details: C. parapsilopsis; for MIC50: Lodderomyces parapsilosis, ATCC22019, read-out: Minimum inhibitory concentration (MIC50)
Experimental: (§1) The anticandidal effect of compounds 6a–6s were screened in accord with the EUCAST definitive (EDef 7.1) method. Ketoconazole was employed as a reference drug. The in vitro growth inhibitory activity of the compounds were tested against C. albicans (ATCC 24433), C. glabrata (ATCC 90030), C. krusei (ATCC 6258) and C. parapsilosis (ATCC 22019). The results were obtained as MIC values and MIC readings were accomplished twice for each chemical agent. After incubating overnight at 37 °C, the fungal strains were sustained in Roswell Park Memorial Institute (RPMI) medium.
(§2) Adjustment of the inoculum density to a 0.5 McFarland turbidity standard was carried out by using a spectrophotometer. The resulting inoculum suspension contained 0.5 × 10^5–2.5 × 10^5 cfu/mL for fungi. The two-fold serial dilutions technique were applied and the test was carried out in Mueller–Hinton broth and RPMI at pH7 and the test was performed for medium at pH7. The last well on the microplates containing only inoculated broth and the last well with no growth of microorganism represent controls and the MIC50 in μg/mL, respectively. DMSO was used as solvent. Further dilutions of the compounds and standard drugs in the RPMI medium were prepared in the required quantities at contcentrations of 800, 400, 200, 100, 50, 25, 12.5, 6.25, 3.125, 1.5625 and 0.78 µg/mL. After a 24 h incubation of the completed plates, resazurin (20 µg/mL) was added into each well in order to observe the fungal growth. […] Each experiment in antifungal assay was performed twice.

C. glabrata (ATCC 90030) = experiment: Antifungal broth microdilution assay (EUCAST EDef 7.1), C. glabrata; type: cell-based; details: for MIC50: Nakaseomyces glabratus, ATCC90030, read-out: Minimum inhibitory concentration (MIC50)
Experimental: as §1, §2

C. krusei (ATCC 6258) = experiment: Antifungal broth microdilution assay (EUCAST EDef 7.1), C. krusei; type: cell-based; details: for MIC50: Pichia kudriavzevii, ATCC6258, read-out: Minimum inhibitory concentration (MIC50)
Experimental: as §1, §2

C. albicans (ATCC 24433) = experiment: Antifungal broth microdilution assay (EUCAST EDef 7.1), C. albicans; type: cell-based; details: for MIC50: Candida albicans, ATCC24433, read-out: Minimum inhibitory concentration (MIC50)
Experimental: as §1, §2

[2] = system: ergosterol biosynthesis in C. krusei; experiment: Ergosterol level quantification by LC-MS-MS in C. krusei; type: cell-based; details: Pichia kudriavzevii, mean ± SD
Experimental: The ergosterol level was determined using the method described by Breivik and Owades with adjustments according to [2]. C. krusei was inoculated with Sabouraud dextrose broth (Difco) supplemented with compounds 6e, 6k, 6r and the positive control, ketoconazole. The cultures were incubated, and the stationary-phase cells were harvested. After the addition of 25% alcoholic potassium hydroxide solution, cell suspensions were separated and incubated. Sterols were extracted by sterile distilled water and chloroform, and then the extract was injected into the LC-MS-MS system (Shimadzu LCMS 8040, Kyoto, Japan). The ergosterol quantity in the negative control samples was considered as 100%. All concentrations were analysed in quadruplicate, and the results were presented as mean ± standard deviation (SD).

Row | Compound | MIC50 [1] [µg/mL] | MIC50 (C. glabrata (ATCC 90030)) [µg/mL] | MIC50 (C. krusei (ATCC 6258)) [µg/mL] | melting point [°C] | MIC50 (C. albicans (ATCC 24433)) [µg/mL] | inhibition at 0.78 µg/mL ([2]; 0.78 µg/mL) [%] | inhibition at 1.56 µg/mL ([2]; 1.56 µg/mL) [%] | inhibition at 3.12 µg/mL ([2]; 3.12 µg/mL) [%] | Minimum inhibitory concentration (MIC50) [1] [µg/mL] | Minimum inhibitory concentration (MIC50) (C. glabrata (ATCC 90030)) [µg/mL] | Minimum inhibitory concentration (MIC50) (C. krusei (ATCC 6258)) [µg/mL] | Minimum inhibitory concentration (MIC50) (C. albicans (ATCC 24433)) [µg/mL]
1 | O=C(CSc1nnc(CCSc2nnc(NC3CCCCC3)s2)o1)c1ccccc1 [Compound 6a, 2-[[5-[2-[[5-(Cyclohexylamino)-1,3,4-thiadiazol-2-yl]thio]ethyl]-1,3,4-oxadiazol-2-yl]thio]-1-phenylethan-1-one] | 50 (≈ 108 µM) | 50 (≈ 108 µM) | 50 (≈ 108 µM) | 141 | 25 (≈ 54.2 µM) | – | – | – | – | – | – | –
2 | CC(=O)N1CCN(c2ccc(OCC3COC(Cn4ccnc4)(c4ccc(Cl)cc4Cl)O3)cc2)CC1 (stereo not drawn) [Ketoconazole, reference compound] | 1.56 (≈ 2.94 µM) | 1.56 (≈ 2.94 µM) | 1.56 (≈ 2.94 µM) | – | 0.78 (≈ 1.47 µM) | 61 ± 2.94 | 73.1 ± 4.16 | 84.6 ± 3.01 | – | – | – | –
3 | Cc1ccc(NC(=O)CSc2nnc(CCSc3nnc(NC4CCCCC4)s3)o2)cc1 [Compound 6h, 2-[[5-[2-[[5-(Cyclohexylamino)-1,3,4-thiadiazol-2-yl]thio]ethyl]-1,3,4-oxadiazol-2-yl]thio]-N-(4-methylphenyl)acetamide] | 50 (≈ 102 µM) | 100 (≈ 204 µM) | 100 (≈ 204 µM) | – | 25 (≈ 50.9 µM) | – | – | – | – | – | – | –
4 | O=C(CSc1nnc(CCSc2nnc(NC3CCCCC3)s2)o1)Nc1nc2ccc(F)cc2s1 [Compound 6s, 2-[[5-[2-[[5-(Cyclohexylamino)-1,3,4-thiadiazol-2-yl]thio]ethyl]-1,3,4-oxadiazol-2-yl]thio]-N-(6-fluorobenzothiazol-2-yl)acetamide] | 50 (≈ 90.6 µM) | 6.25 (≈ 11.3 µM) | 50 (≈ 90.6 µM) | – | 50 (≈ 90.6 µM) | – | – | – | – | – | – | –
5 | O=C(CSc1nnc(CCSc2nnc(NC3CCCCC3)s2)o1)Nc1nc2ccccc2s1 [Compound 6m, 2-[[5-[2-[[5-(Cyclohexylamino)-1,3,4-thiadiazol-2-yl]thio]ethyl]-1,3,4-oxadiazol-2-yl]thio]-N-(benzothiazol-2-yl)acetamide] | 25 (≈ 46.8 µM) | 50 (≈ 93.7 µM) | 50 (≈ 93.7 µM) | 214 | 50 (≈ 93.7 µM) | – | – | – | – | – | – | –
6 | COc1ccc(NC(=O)CSc2nnc(CCSc3nnc(NC4CCCCC4)s3)o2)cc1 [Compound 6i, 2-[[5-[2-[[5-(Cyclohexylamino)-1,3,4-thiadiazol-2-yl]thio]ethyl]-1,3,4-oxadiazol-2-yl]thio]-N-(4-methoxyphenyl)acetamide] | 50 (≈ 98.7 µM) | 100 (≈ 197 µM) | 100 (≈ 197 µM) | – | 25 (≈ 49.3 µM) | – | – | – | – | – | – | –
7 | Cc1ccc2nc(NC(=O)CSc3nnc(CCSc4nnc(NC5CCCCC5)s4)o3)sc2c1 [Compound 6n, 2-[[5-[2-[[5-(Cyclohexylamino)-1,3,4-thiadiazol-2-yl]thio]ethyl]-1,3,4-oxadiazol-2-yl]thio]-N-(6-methylbenzothiazol-2-yl)acetamide] | 25 (≈ 45.6 µM) | 25 (≈ 45.6 µM) | 50 (≈ 91.3 µM) | 209 | 100 (≈ 183 µM) | – | – | – | – | – | – | –
8 | O=C(CSc1nnc(CCSc2nnc(NC3CCCCC3)s2)o1)Nc1ccc(Cl)cc1 [Compound 6j, 2-[[5-[2-[[5-(Cyclohexylamino)-1,3,4-thiadiazol-2-yl]thio]ethyl]-1,3,4-oxadiazol-2-yl]thio]-N-(4-chlorophenyl)acetamide] | 50 (≈ 97.8 µM) | 50 (≈ 97.8 µM) | 50 (≈ 97.8 µM) | – | 25 (≈ 48.9 µM) | – | – | – | – | – | – | –
9 | O=C(CSc1nnc(CCSc2nnc(NC3CCCCC3)s2)o1)c1ccc(F)cc1 [Compound 6f, 2-[[5-[2-[[5-(Cyclohexylamino)-1,3,4-thiadiazol-2-yl]thio]ethyl]-1,3,4-oxadiazol-2-yl]thio]-1-(4-fluorophenyl)ethan-1-one] | 50 (≈ 104 µM) | 50 (≈ 104 µM) | 25 (≈ 52.1 µM) | 131 | 50 (≈ 104 µM) | – | – | – | – | – | – | –
10 | COc1ccc2nc(NC(=O)CSc3nnc(CCSc4nnc(NC5CCCCC5)s4)o3)sc2c1 [Compound 6o, 2-[[5-[2-[[5-(Cyclohexylamino)-1,3,4-thiadiazol-2-yl]thio]ethyl]-1,3,4-oxadiazol-2-yl]thio]-N-(6-methoxybenzothiazol-2-yl)acetamide] | 50 (≈ 88.7 µM) | 25 (≈ 44.3 µM) | 25 (≈ 44.3 µM) | – | 100 (≈ 177 µM) | – | – | – | – | – | – | –
11 | O=C(CSc1nnc(CCSc2nnc(NC3CCCCC3)s2)o1)Nc1ccccc1 [Compound 6g, 2-[[5-[2-[[5-(Cyclohexylamino)-1,3,4-thiadiazol-2-yl]thio]ethyl]-1,3,4-oxadiazol-2-yl]thio]-N-phenyl acetamide] | – | – | – | – | – | – | – | – | 50 (≈ 105 µM) | 50 (≈ 105 µM) | 50 (≈ 105 µM) | 50 (≈ 105 µM)
12 | Cc1ccc(C(=O)CSc2nnc(CCSc3nnc(NC4CCCCC4)s3)o2)cc1 [Compound 6b, 2-[[5-[2-[[5-(Cyclohexylamino)-1,3,4-thiadiazol-2-yl]thio]ethyl]-1,3,4-oxadiazol-2-yl]thio]-1-(4-methylphenyl)ethan-1-one] | 50 (≈ 105 µM) | 50 (≈ 105 µM) | 100 (≈ 210 µM) | 136 | 50 (≈ 105 µM) | – | – | – | – | – | – | –
13 | O=C(CSc1nnc(CCSc2nnc(NC3CCCCC3)s2)o1)c1ccc(Cl)cc1 [Compound 6d, 2-[[5-[2-[[5-(Cyclohexylamino)-1,3,4-thiadiazol-2-yl]thio]ethyl]-1,3,4-oxadiazol-2-yl]thio]-1-(4-chlorophenyl)ethan-1-one] | 50 (≈ 101 µM) | 25 (≈ 50.4 µM) | 50 (≈ 101 µM) | 167 | 100 (≈ 202 µM) | – | – | – | – | – | – | –
14 | COc1ccc(C(=O)CSc2nnc(CCSc3nnc(NC4CCCCC4)s3)o2)cc1 [Compound 6c, 2-[[5-[2-[[5-(Cyclohexylamino)-1,3,4-thiadiazol-2-yl]thio]ethyl]-1,3,4-oxadiazol-2-yl]thio]-1-(4-methoxyphenyl)ethan-1-one] | 50 (≈ 102 µM) | 25 (≈ 50.8 µM) | 100 (≈ 203 µM) | 120 | 100 (≈ 203 µM) | – | – | – | – | – | – | –
15 | O=C(CSc1nnc(CCSc2nnc(NC3CCCCC3)s2)o1)Nc1nc2ccc(Cl)cc2s1 [Compound 6p, 2-[[5-[2-[[5-(Cyclohexylamino)-1,3,4-thiadiazol-2-yl]thio]ethyl]-1,3,4-oxadiazol-2-yl]thio]-N-(6-chlorobenzothiazol-2-yl)acetamide] | 50 (≈ 88 µM) | 25 (≈ 44 µM) | 25 (≈ 44 µM) | 213 | 50 (≈ 88 µM) | – | – | – | – | – | – | –
16 | O=C(CSc1nnc(CCSc2nnc(NC3CCCCC3)s2)o1)Nc1ccc(F)cc1 [Compound 6l, 2-[[5-[2-[[5-(Cyclohexylamino)-1,3,4-thiadiazol-2-yl]thio]ethyl]-1,3,4-oxadiazol-2-yl]thio]-N-(4-fluorophenyl)acetamide] | 25 (≈ 50.5 µM) | 50 (≈ 101 µM) | 50 (≈ 101 µM) | – | 100 (≈ 202 µM) | – | – | – | – | – | – | –
